What was measured:
German cockroach = German cockroach knockdown and mortality, spray chamber application; assay type: in vivo
Procedure: The compositions of the present invention were tested for German cockroach activity in the following manner:
(§1) Test compositions made up of TALSTARONE® MULTI-INSECTICIDE and a 70% wettable powder of acetamiprid in distilled water were prepared that provided appropriate rates of application of combinations of bifenthrin and acetamiprid, as well as bifenthrin and acetamiprid alone.
The spray chamber was then calibrated to deliver the treatment solution at the desired volume and pressure over the desired area on the chamber shelf. Spray chamber shelf height was adjusted to approximately 18 inches from the spray tip. The shelf was then covered with aluminum foil and the center of the shelf from front-to-back and end-to-end was determined. A desired number of 4.0″ sieve circles were marked on the aluminum foil with a permanent marker. The inside of a desired number of PVC rings were coated with a petroleum jelly/mineral oil mixture (1:2 ratio). The PVC rings were place on the sieve circles. 10 male German cockroaches were placed inside each PVC ring. The sprayer was activated and the test compound was applied to each PVC ring interior. German cockroach knockdown and mortality were measured.

Red Imported Fire Ant = test: Red imported fire ant knockdown and mortality, spray chamber application; assay type: in vivo, Solenopsis invicta
Procedure: The compositions of the present invention were tested for red imported fire ant activity in the following manner:
as §1
(§2) The spray chamber was then calibrated to deliver the treatment solution at the desired volume and pressure over the desired area on the chamber shelf. Spray chamber shelf height was adjusted to approximately 18 inches from the spray tip. The shelf was then covered with aluminum foil and the center of the shelf from front-to-back and end-to-end was determined. The red imported fire ants to be treated were collected and placed in screened 16 oz paper cups. The paper cups were placed onto the aluminum foil on the spray chamber shelf. The sprayer was activated and the test compound was applied to each paper cup interior. Red imported fire ant knockdown and mortality were measured.

House Flies = test: House fly knockdown and mortality, hand held sprayer application; assay type: in vivo
Procedure: The compositions of the present invention were tested for house fly activity in the following manner:
as §1
A DeVilbiss hand held sprayer was used to deliver the treatment solution at the desired volume and pressure. The house flies to be treated were collected and placed in screened 16 oz paper cups. The hand held sprayer was activated and the test compound was applied to each paper cup interior. House fly knockdown and mortality were measured.

Bed Bugs = test: Bed bug mortality, spray chamber application; assay type: in vivo
Procedure: The compositions of the present invention were tested for bed bug activity in the following manner:
as §1
as §2, with “approximately 10.5” for “approximately 18”, “The bed bugs” for “The red imported fire ants”, “interior. Bed bug” for “interior. Red imported fire ant knockdown and”, “mortality was” for “mortality were”

[1] = Rate of Appln. 10 PPM (0.001% by weight)
[2] = Rate of Appln. 50 PPM (0.005% by weight)
[3] = Rate of Appln. 200 PPM (0.02% by weight)
[4] = Rate of Appln. 600 PPM (0.06% by weight)
[5] = Rate of Appln. 300 PPM (0.03% by weight)
[6] = Rate of Appln. 100 PPM (0.01% by weight)
[7] = Rate of Appln. 250 PPM (0.025% by weight)
[8] = Rate of Appln. 500 PPM (0.05% by weight)
[9] = Rate of Appln. 1000 PPM (0.10% by weight)
[10] = Rate of Appln. 125 PPM (0.0125% by weight)

With `Cc1c(COC(=O)[C@@H]2[C@H](/C=C(\Cl)C(F)(F)F)C2(C)C)cccc1-c1ccccc1` (racemic) [A, 2-methylbiphenyl-3-ylmethyl(Z)-(1RS)-cis-3-(2-chloro-3,3,3-trifluoroprop-1-enyl)-2,2-dimethylcyclopropanecarboxylate] the “Knockdown Rate @ 10 minutes” value (German cockroach; [1]) was 0%, the “Knockdown Rate @ 15 minutes” value (German cockroach; [1]) was 3% and the “Knockdown Rate @ 30 minutes” value (German cockroach; [1]) was 23%. For the same molecule, the “Mortality Rate @ 60 minutes” value (German cockroach; [1]) was 40%, the “Mortality Rate @ 240 minutes” value (German cockroach; [1]) was 50% and the “Knockdown Rate @ 10 minutes” value (German cockroach; [2]) was 0%. The “Knockdown Rate @ 15 minutes” value (German cockroach; [2]) was 0%, the “Knockdown Rate @ 30 minutes” value (German cockroach; [2]) was 0% and the “Mortality Rate @ 60 minutes” value (German cockroach; [2]) was 38%. The “Mortality Rate @ 240 minutes” value (German cockroach; [2]) was 60%, the “Knockdown Rate @ 10 minutes” value (German cockroach; [3]) was 0% and the “Knockdown Rate @ 15 minutes” value (German cockroach; [3]) was 3%. The “Knockdown Rate @ 30 minutes” value (German cockroach; [3]) was 45%, the “Mortality Rate @ 60 minutes” value (German cockroach; [3]) was 100% and the “Mortality Rate @ 120 minutes” value (German cockroach; [3]) was 100%. For the same molecule, the “Mortality Rate @ 240 minutes” value (German cockroach; [3]) was 100%, the “Knockdown Rate @ 10 minutes” value (German cockroach; [4]) was 0% and the “Knockdown Rate @ 15 minutes” value (German cockroach; [4]) was 8%. For the same molecule, the “Knockdown Rate @ 30 minutes” value (German cockroach; [4]) was 60%, the “Mortality Rate @ 60 minutes” value (German cockroach; [4]) was 100% and the “Mortality Rate @ 120 minutes” value (German cockroach; [4]) was 100%. For the same molecule, the “Mortality Rate @ 240 minutes” value (German cockroach; [4]) was 100%, the “Knockdown Rate @ 10 minutes” value (Red Imported Fire Ant; [5]) was 63% and the “Knockdown Rate @ 15 minutes” value (Red Imported Fire Ant; [5]) was 100%. For the same molecule, the “Knockdown Rate @ 30 minutes” value (Red Imported Fire Ant; [5]) was 100%, the “Mortality Rate @ 60 minutes” value (Red Imported Fire Ant; [5]) was 100% and the “Mortality Rate @ 120 minutes” value (Red Imported Fire Ant; [5]) was 100%. For the same molecule, the “Mortality Rate @ 240 minutes” value (Red Imported Fire Ant; [5]) was 100%, the “Knockdown Rate @ 10 minutes” value (Red Imported Fire Ant; [4]) was 78% and the “Knockdown Rate @ 15 minutes” value (Red Imported Fire Ant; [4]) was 100%. The “Knockdown Rate @ 30 minutes” value (Red Imported Fire Ant; [4]) was 100%, the “Mortality Rate @ 60 minutes” value (Red Imported Fire Ant; [4]) was 100% and the “Mortality Rate @ 120 minutes” value (Red Imported Fire Ant; [4]) was 100%. For the same molecule, the “Mortality Rate @ 240 minutes” value (Red Imported Fire Ant; [4]) was 100%, the “Knockdown Rate @ 15 minutes” value (House Flies; [1]) was 0% and the “Knockdown Rate @ 30 minutes” value (House Flies; [1]) was 0%. The “Knockdown Rate @ 60 minutes” value (House Flies; [1]) was 19%, the “Knockdown Rate @ 120 minutes” value (House Flies; [1]) was 19% and the “Knockdown Rate @ 240 minutes” value (House Flies; [1]) was 48%. For the same molecule, the “Mortality Rate @ 1 day” value (House Flies; [1]) was 3%, the “Knockdown Rate @ 15 minutes” value (House Flies; [2]) was 0% and the “Knockdown Rate @ 30 minutes” value (House Flies; [2]) was 19%. For the same molecule, the “Knockdown Rate @ 60 minutes” value (House Flies; [2]) was 59%, the “Knockdown Rate @ 120 minutes” value (House Flies; [2]) was 63% and the “Knockdown Rate @ 240 minutes” value (House Flies; [2]) was 100%. For the same molecule, the “Mortality Rate @ 1 day” value (House Flies; [2]) was 63%, the “Mortality Rate @ 2 hours” value (Bed Bugs; [3]) was 85% and the “Mortality Rate @ 1 day” value (Bed Bugs; [3]) was 100%. For the same molecule, the “Mortality Rate @ 2 hours” value (Bed Bugs; [4]) was 75% and the “Mortality Rate @ 1 day” value (Bed Bugs; [4]) was 100%.
`C/C(=N\C#N)N(C)Cc1ccc(Cl)nc1` [B, (E)-N^1-[(6-chloro-3-pyridyl)methyl]-N^2-cyano-N^1-methylacetamidine] was tested, and the “Knockdown Rate @ 10 minutes” value (German cockroach; [2]) was 0%, the “Knockdown Rate @ 15 minutes” value (German cockroach; [2]) was 13% and the “Knockdown Rate @ 30 minutes” value (German cockroach; [2]) was 38%. The “Mortality Rate @ 60 minutes” value (German cockroach; [2]) was 53%, the “Mortality Rate @ 240 minutes” value (German cockroach; [2]) was 63% and the “Knockdown Rate @ 10 minutes” value (German cockroach; [6]) was 0%. The “Knockdown Rate @ 15 minutes” value (German cockroach; [6]) was 8%, the “Knockdown Rate @ 30 minutes” value (German cockroach; [6]) was 38% and the “Mortality Rate @ 60 minutes” value (German cockroach; [6]) was 58%. For the same molecule, the “Mortality Rate @ 240 minutes” value (German cockroach; [6]) was 63%, the “Knockdown Rate @ 10 minutes” value (German cockroach; [7]) was 10% and the “Knockdown Rate @ 15 minutes” value (German cockroach; [7]) was 35%. For the same molecule, the “Knockdown Rate @ 30 minutes” value (German cockroach; [7]) was 75%, the “Mortality Rate @ 60 minutes” value (German cockroach; [7]) was 88% and the “Mortality Rate @ 120 minutes” value (German cockroach; [7]) was 90%. For the same molecule, the “Mortality Rate @ 240 minutes” value (German cockroach; [7]) was 83%, the “Knockdown Rate @ 10 minutes” value (German cockroach; [8]) was 8% and the “Knockdown Rate @ 15 minutes” value (German cockroach; [8]) was 45%. For the same molecule, the “Knockdown Rate @ 30 minutes” value (German cockroach; [8]) was 88%, the “Mortality Rate @ 60 minutes” value (German cockroach; [8]) was 80% and the “Mortality Rate @ 120 minutes” value (German cockroach; [8]) was 98%. For the same molecule, the “Mortality Rate @ 240 minutes” value (German cockroach; [8]) was 80%, the “Knockdown Rate @ 10 minutes” value (German cockroach; [9]) was 38% and the “Knockdown Rate @ 15 minutes” value (German cockroach; [9]) was 75%. For the same molecule, the “Knockdown Rate @ 30 minutes” value (German cockroach; [9]) was 93%, the “Mortality Rate @ 60 minutes” value (German cockroach; [9]) was 100% and the “Mortality Rate @ 120 minutes” value (German cockroach; [9]) was 98%. For the same molecule, the “Mortality Rate @ 240 minutes” value (German cockroach; [9]) was 80%, the “Knockdown Rate @ 10 minutes” value (Red Imported Fire Ant; [10]) was 0% and the “Knockdown Rate @ 15 minutes” value (Red Imported Fire Ant; [10]) was 0%. The “Knockdown Rate @ 30 minutes” value (Red Imported Fire Ant; [10]) was 10%, the “Mortality Rate @ 60 minutes” value (Red Imported Fire Ant; [10]) was 5% and the “Mortality Rate @ 120 minutes” value (Red Imported Fire Ant; [10]) was 65%. For the same molecule, the “Mortality Rate @ 240 minutes” value (Red Imported Fire Ant; [10]) was 90%, the “Knockdown Rate @ 10 minutes” value (Red Imported Fire Ant; [7]) was 10% and the “Knockdown Rate @ 15 minutes” value (Red Imported Fire Ant; [7]) was 3%. The “Knockdown Rate @ 30 minutes” value (Red Imported Fire Ant; [7]) was 5%, the “Mortality Rate @ 60 minutes” value (Red Imported Fire Ant; [7]) was 13% and the “Mortality Rate @ 120 minutes” value (Red Imported Fire Ant; [7]) was 98%. For the same molecule, the “Mortality Rate @ 240 minutes” value (Red Imported Fire Ant; [7]) was 100%, the “Knockdown Rate @ 10 minutes” value (Red Imported Fire Ant; [8]) was 0% and the “Knockdown Rate @ 15 minutes” value (Red Imported Fire Ant; [8]) was 15%. For the same molecule, the “Knockdown Rate @ 30 minutes” value (Red Imported Fire Ant; [8]) was 15%, the “Mortality Rate @ 60 minutes” value (Red Imported Fire Ant; [8]) was 60% and the “Mortality Rate @ 120 minutes” value (Red Imported Fire Ant; [8]) was 100%. The “Mortality Rate @ 240 minutes” value (Red Imported Fire Ant; [8]) was 100%, the “Knockdown Rate @ 15 minutes” value (House Flies; [6]) was 47% and the “Knockdown Rate @ 30 minutes” value (House Flies; [6]) was 47%. For the same molecule, the “Knockdown Rate @ 60 minutes” value (House Flies; [6]) was 53%, the “Knockdown Rate @ 120 minutes” value (House Flies; [6]) was 41% and the “Knockdown Rate @ 240 minutes” value (House Flies; [6]) was 53%. For the same molecule, the “Mortality Rate @ 1 day” value (House Flies; [6]) was 16%, the “Knockdown Rate @ 15 minutes” value (House Flies; [3]) was 69% and the “Knockdown Rate @ 30 minutes” value (House Flies; [3]) was 86%. The “Knockdown Rate @ 60 minutes” value (House Flies; [3]) was 72%, the “Knockdown Rate @ 120 minutes” value (House Flies; [3]) was 72% and the “Knockdown Rate @ 240 minutes” value (House Flies; [3]) was 78%. The “Mortality Rate @ 1 day” value (House Flies; [3]) was 28%, the “Mortality Rate @ 2 hours” value (Bed Bugs; [7]) was 30% and the “Mortality Rate @ 1 day” value (Bed Bugs; [7]) was 95%. For the same molecule, the “Mortality Rate @ 2 hours” value (Bed Bugs; [8]) was 60%, the “Mortality Rate @ 1 day” value (Bed Bugs; [8]) was 100% and the “Mortality Rate @ 2 hours” value (Bed Bugs; [9]) was 95%. The “Mortality Rate @ 1 day” value (Bed Bugs; [9]) was 100%.

Source: US7901700B2, “Bifenthrin/acetamiprid compositions for control of general household pests” (FMC Corporation, priority 2004, dated 2011)
